This is an account of results in patent publication US20210106698A1, “LIVER-SPECIFIC MRI CONTRAST AGENT INCLUDING MANGANESE SILICATE NANOPARTICLES” (POSTECH ACADEMY-INDUSTRY FOUNDATION, priority 2017, published 2021).

The nature of data set [1]: T1-weighted MRI of supernatants with released Mn2+ ions (R1, r1). The class given is physicochemical. As to conditions: MnCl2 aqueous solution. The text has this:
The contrast signal intensity of the photographed image was digitized (R1, unit=[…]), and shown in the graph of FIG. 9b. It is inferred that the released Mn^2+ ions can increase the contrast effect in T1-weighted image, on the basis that FIG. 9b is almost consistent with the graph of the release rate of Mn^2+ ions for each particle shown in FIG. 8e.
Next, the relationship between the concentration of Mn^2+ ions and the contrast intensity R1 of the image is shown in the graph of FIG. 9c. The slope of this graph is expressed as r1, and is a unique value for each material.

The nature of data set [2]: T1 relaxation / T1-weighted image of HMS suspensions (3.0-T MR scanner). The class given is physicochemical. As to conditions: comparison value for free Mn2+. Here is the method:
The release profile of manganese ions from HMS was quantified at room temperature using 8 mg of HMS suspensions in 16 ml of citrate buffer at pH 5 and pH 6.2 and distilled water. 4 ml of each HMS suspensions was collected from samples at 15 minutes, 1 hour, 7 hours and 20 hours, and the nanoparticles (NPs) of the sample were removed by centrifugation at 15,000 rpm for 10 minutes, and each supernatant was filtered by using syringe filter with […] of pore size. The amount of each released manganese ion and the T1 relaxation time of the proton in each supernatant were quantified using ICP-AES and a 3.0-T clinical MR scanner (Philips, Achieva ver. 1.2, Philips Medical Systems, Best, The Netherlands).
The Mn release property and T1 contrast enhancing property of HMS prepared in Example 1-2 were tested according to Example 1-3.

On to `[Cl][Mn][Cl]` [MnCl2], for which the “r1 value for pure Mn^2+ ions” value in data set [1] was “about 7.4”. Besides, the “r1 value of free manganese ions” value in data set [2] was found to be 7.8 s⁻¹ mM⁻¹.
